Data published in ChEMBL document CHEMBL1156830, “Synthesis of fluorescent nucleoside analogs as probes for 2'-deoxyribonucleoside kinases” (Bioorg Med Chem Lett, 2010).

molecular target: T1, Deoxynucleoside kinase (Drosophila melanogaster) (UniProt Q9XZT6); assay: Activity at Drosophila melanogaster dNK at 100 uM by spectrophotometry
T1 sequence (whole entry): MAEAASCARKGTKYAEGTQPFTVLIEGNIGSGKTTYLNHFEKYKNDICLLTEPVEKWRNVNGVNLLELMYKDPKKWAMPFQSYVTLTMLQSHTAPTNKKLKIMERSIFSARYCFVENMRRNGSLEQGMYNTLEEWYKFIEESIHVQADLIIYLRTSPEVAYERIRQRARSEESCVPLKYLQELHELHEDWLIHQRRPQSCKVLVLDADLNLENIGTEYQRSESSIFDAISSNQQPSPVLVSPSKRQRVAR

Activity	SMILES
128%	Cc1cc2cn([C@H]3C[C@H](O)[C@@H](CO)O3)c(=O)nc2[nH]1
12%	Cc1cc2cn([C@H]3C[C@H](N=[N+]=[N-])[C@@H](CO)O3)c(=O)nc2o1
30%	Cc1cc2cn([C@H]3CC[C@@H](CO)O3)c(=O)nc2o1
12%	Cc1cc2cn([C@H]3C[C@H](F)[C@@H](CO)O3)c(=O)nc2o1
2.6%	Cc1cc2cn([C@H]3CC[C@@H](CO)O3)c(=O)nc2[nH]1
330%	Cc1cc2cn([C@H]3C=C[C@@H](CO)O3)c(=O)nc2o1

molecular target: T1, Deoxynucleoside kinase (Drosophila melanogaster); assay: Activity at Drosophila melanogaster dNK at 10 uM by spectrophotometry

Activity	SMILES
43%	Cc1cc2cn([C@H]3C[C@H](O)[C@@H](CO)O3)c(=O)nc2o1
